Common to all, as to assay type: biochemical
One assay addresses HDAC9 (Homo sapiens, UniProt Q9UKV0). Description: HDAC9 enzymatic assay. Particulars: Table 3 comparison results. On the procedure: (§1) All enzymatic reactions were conducted in duplicate at room temperature for 17 hours in a 50 μl mixture containing HDAC assay buffer (50 mM Tris-HCl, pH 7.4, 137 mM NaCl, 2.7 mM KCl, 0.05% Tween 20, 5 μg BSA), an HDAC substrate, an HDAC enzyme, and a test compound. Compound dilution was prepared ten-fold higher than the final concentration of the compounds with 10% DMSO in HDAC assay buffer and 5 al of the dilution was added to a 50 al reaction so that the final concentration of DMSO is 1% in all of reactions. After enzymatic reactions, 50 μl of HDAC Developer was added to each well and the plate was incubated at room temperature for an additional 20 minutes. Fluorescence intensity was measured at an excitation of 360 nm and an emission of 460 nm using a Tecan Infinite M1000 or Biotek Synergy microplate reader. The fluorescent intensity data were analyzed using the computer software, Graphpad Prism. In the absence of the compound, the fluorescent intensity (Ft) in each data set was defined as 100% activity. In the absence of HDAC, the fluorescent intensity (Fb) in each data set was defined as 0% activity. The percent activity in the presence of each compound was calculated according to the following equation: % activity=(F−Fb)/(Ft−Fb), where F=the fluorescent intensity in the presence of the compound. […]

The target in the next assay is T1, HDAC8 (Homo sapiens, UniProt Q9BY41).
T1 sequence (Q9BY41 1-377): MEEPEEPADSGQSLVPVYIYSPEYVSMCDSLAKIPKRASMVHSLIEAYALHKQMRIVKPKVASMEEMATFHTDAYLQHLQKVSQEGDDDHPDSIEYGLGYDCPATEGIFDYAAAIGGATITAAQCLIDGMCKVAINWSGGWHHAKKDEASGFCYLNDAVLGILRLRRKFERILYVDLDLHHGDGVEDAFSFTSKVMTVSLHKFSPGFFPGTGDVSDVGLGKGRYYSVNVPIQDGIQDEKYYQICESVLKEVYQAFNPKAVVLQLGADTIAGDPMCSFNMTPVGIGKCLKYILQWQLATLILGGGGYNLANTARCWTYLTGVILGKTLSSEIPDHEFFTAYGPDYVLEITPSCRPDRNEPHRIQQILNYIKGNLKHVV
As to the kind of experiment: HDAC8 enzymatic assay. On the procedure:
as §1

The target of a further assay is T2, HDAC7 (Homo sapiens, UniProt Q8WUI4).
T2 sequence (Q8WUI4 1-952): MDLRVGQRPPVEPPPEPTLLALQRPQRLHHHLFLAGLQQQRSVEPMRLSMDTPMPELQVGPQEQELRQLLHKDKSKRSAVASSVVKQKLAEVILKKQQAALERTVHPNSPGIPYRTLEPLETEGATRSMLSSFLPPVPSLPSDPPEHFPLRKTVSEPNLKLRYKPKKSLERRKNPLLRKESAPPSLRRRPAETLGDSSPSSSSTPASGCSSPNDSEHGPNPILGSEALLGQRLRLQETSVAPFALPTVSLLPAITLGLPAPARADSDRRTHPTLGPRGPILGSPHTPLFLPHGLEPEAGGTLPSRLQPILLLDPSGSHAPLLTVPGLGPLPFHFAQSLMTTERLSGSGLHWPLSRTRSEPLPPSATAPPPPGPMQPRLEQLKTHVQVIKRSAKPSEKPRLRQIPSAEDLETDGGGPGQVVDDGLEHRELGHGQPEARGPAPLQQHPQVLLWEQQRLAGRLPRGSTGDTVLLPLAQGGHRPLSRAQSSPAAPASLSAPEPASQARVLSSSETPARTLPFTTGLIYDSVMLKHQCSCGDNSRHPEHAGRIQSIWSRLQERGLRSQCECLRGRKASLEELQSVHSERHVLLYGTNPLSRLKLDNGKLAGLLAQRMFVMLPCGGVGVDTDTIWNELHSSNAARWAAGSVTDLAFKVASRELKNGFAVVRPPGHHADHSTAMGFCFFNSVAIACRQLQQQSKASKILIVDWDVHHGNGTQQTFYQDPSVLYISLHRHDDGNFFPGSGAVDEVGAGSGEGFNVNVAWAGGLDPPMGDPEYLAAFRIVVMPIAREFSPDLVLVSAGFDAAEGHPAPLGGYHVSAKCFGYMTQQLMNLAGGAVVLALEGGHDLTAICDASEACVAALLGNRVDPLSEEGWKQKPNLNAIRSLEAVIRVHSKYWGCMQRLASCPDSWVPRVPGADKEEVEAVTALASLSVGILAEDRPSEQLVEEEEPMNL
Description: HDAC7 enzymatic assay. Particulars: Table 3 comparison results. As to the method:
as §1

For another assay, the target named is T3, HDAC10 (Homo sapiens, UniProt Q969S8).
T3 sequence (Q969S8 1-669): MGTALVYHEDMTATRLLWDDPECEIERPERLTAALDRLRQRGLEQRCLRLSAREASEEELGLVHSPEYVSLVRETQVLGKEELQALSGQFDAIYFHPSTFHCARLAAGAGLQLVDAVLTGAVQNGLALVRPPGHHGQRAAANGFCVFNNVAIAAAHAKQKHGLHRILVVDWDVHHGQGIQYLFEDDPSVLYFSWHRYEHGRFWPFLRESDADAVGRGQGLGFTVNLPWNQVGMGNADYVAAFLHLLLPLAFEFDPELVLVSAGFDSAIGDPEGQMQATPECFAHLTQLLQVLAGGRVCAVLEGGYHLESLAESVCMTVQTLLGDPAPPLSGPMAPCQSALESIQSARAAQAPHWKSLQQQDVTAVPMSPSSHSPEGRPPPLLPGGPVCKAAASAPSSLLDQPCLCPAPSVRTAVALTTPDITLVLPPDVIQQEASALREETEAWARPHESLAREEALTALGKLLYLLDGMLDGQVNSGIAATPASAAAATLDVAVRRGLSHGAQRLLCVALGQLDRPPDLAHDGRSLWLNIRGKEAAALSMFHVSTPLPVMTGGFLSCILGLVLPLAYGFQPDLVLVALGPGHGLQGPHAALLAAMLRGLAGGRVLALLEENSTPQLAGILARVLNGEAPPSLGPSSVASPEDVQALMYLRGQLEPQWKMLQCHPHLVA
Description: HDAC10 enzymatic assay. To be noted: Table 3 comparison results. On the procedure:
as §1

The target of a further assay is HDAC5 (Homo sapiens, UniProt Q9UQL6). As to the kind of experiment: HDAC5 enzymatic assay. To be noted: Table 3 comparison results. As to the method:
as §1

The target in a further assay is T4, HDAC6 (Homo sapiens, UniProt Q9UBN7).
T4 sequence (Q9UBN7 1-1215): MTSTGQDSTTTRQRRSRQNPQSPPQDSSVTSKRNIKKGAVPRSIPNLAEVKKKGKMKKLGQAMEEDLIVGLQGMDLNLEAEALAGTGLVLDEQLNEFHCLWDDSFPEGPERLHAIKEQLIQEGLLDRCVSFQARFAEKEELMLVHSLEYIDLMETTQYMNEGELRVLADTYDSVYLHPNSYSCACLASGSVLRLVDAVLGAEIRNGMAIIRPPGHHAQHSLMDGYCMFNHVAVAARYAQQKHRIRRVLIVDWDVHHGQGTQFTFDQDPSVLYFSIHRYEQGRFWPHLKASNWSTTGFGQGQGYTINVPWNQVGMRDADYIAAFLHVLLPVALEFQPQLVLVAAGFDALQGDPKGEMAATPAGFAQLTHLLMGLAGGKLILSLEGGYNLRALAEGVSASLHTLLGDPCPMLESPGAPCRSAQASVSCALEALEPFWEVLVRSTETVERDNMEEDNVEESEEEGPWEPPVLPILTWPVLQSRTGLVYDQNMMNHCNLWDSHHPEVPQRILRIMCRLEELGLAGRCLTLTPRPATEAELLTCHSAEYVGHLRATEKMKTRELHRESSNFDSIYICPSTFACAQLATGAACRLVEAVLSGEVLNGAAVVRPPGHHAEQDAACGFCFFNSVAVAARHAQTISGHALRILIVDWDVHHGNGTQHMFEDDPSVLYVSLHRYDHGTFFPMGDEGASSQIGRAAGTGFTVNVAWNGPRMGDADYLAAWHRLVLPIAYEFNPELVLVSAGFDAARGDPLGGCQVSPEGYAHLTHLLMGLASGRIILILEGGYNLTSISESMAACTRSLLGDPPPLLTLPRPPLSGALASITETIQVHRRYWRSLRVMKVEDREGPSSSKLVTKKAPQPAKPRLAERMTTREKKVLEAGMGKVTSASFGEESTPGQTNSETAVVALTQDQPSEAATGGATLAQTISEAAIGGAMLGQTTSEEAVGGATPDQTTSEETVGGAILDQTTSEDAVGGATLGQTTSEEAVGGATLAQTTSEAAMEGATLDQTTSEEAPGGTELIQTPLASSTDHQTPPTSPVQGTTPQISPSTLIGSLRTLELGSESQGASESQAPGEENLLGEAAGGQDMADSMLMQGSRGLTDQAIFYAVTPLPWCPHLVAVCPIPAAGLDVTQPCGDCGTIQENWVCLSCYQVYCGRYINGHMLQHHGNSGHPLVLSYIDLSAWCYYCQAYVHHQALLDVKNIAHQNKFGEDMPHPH
As to the kind of experiment: HDAC6 enzymatic assay. To be noted: Table 3 comparison results. On the procedure: as §1

Another assay deals with HDAC2 (Homo sapiens, UniProt Q92769). Description: HDAC2 enzymatic assay. On the procedure: as §1
Chain of HDAC2 (Q92769 whole entry): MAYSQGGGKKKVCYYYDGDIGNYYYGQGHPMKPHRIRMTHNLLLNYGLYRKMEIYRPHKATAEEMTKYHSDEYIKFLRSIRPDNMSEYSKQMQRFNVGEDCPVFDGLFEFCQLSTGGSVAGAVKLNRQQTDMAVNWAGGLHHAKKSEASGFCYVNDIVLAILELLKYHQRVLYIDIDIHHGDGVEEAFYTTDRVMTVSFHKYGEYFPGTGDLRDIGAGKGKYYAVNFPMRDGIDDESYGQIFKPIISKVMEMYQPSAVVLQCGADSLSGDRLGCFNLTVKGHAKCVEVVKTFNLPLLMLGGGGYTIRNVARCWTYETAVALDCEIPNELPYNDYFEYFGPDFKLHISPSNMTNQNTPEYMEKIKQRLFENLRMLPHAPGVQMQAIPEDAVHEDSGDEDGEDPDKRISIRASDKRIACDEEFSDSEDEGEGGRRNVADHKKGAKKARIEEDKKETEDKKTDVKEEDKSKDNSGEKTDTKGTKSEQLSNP
A further assay deals with T5, HDAC11 (Homo sapiens, UniProt Q96DB2).
T5 sequence (Q96DB2 1-347): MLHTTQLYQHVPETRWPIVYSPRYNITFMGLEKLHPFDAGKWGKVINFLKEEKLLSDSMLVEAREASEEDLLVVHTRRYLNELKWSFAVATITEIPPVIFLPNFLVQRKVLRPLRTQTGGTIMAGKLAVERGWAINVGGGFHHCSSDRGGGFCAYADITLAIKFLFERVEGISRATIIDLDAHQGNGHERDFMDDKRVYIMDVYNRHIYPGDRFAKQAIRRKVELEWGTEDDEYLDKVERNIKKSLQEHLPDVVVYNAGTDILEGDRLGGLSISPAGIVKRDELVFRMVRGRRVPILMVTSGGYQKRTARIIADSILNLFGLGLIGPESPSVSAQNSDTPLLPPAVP
Description: HDAC11 enzymatic assay. Particulars: Table 3 comparison results. On the procedure:
as §1

The target of another assay is HDAC3/NCOR2 (Homo sapiens, UniProt O15379). As to the kind of experiment: HDAC3 enzymatic assay. On the procedure: as §1
Chain of HDAC3/NCOR2 (Q9Y618 395-489): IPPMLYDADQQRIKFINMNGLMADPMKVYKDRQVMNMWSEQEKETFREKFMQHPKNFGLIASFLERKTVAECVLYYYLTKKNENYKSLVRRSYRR
Chain of HDAC3/NCOR2 (O15379 whole entry): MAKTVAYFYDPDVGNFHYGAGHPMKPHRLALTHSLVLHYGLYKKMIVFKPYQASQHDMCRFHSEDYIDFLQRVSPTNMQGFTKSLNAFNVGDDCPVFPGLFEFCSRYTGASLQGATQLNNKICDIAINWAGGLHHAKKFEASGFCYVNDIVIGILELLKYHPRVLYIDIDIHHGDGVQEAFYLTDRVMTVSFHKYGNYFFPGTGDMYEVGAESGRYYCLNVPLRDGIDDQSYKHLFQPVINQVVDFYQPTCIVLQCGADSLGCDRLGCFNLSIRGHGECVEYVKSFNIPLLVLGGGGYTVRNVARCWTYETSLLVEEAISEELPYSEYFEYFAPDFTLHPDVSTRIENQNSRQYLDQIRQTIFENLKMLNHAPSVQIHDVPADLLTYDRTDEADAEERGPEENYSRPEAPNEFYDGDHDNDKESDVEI
The next assay addresses HDAC4 (Homo sapiens, UniProt P56524). As to the kind of experiment: HDAC4 enzymatic assay. Particulars: Table 3 comparison results. As to the method:
as §1

For the next assay, the target named is HDAC1 (Homo sapiens, UniProt Q13547). Description: HDAC1 enzymatic assay. As to the method:
as §1

The text below walks through data of patent publication US20200171028A1, “METALLOENZYME INHIBITOR COMPOUNDS” (Viiamet Pharmaceuticals Holdings, LLC, priority 2017, published 2020).

Chain of HDAC1 (Q13547 whole entry): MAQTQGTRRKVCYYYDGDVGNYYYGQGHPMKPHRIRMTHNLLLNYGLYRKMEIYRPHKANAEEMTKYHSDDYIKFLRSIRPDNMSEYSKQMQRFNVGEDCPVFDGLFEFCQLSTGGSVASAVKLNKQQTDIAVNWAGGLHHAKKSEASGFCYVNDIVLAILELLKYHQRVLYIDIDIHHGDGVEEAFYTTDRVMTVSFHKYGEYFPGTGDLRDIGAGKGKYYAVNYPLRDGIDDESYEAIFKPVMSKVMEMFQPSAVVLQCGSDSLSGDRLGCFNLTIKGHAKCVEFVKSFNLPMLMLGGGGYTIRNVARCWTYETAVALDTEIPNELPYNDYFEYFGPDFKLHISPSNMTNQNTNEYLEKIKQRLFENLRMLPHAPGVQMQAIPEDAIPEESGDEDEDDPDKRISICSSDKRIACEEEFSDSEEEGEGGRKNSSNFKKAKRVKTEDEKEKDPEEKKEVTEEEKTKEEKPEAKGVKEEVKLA
Chain of HDAC9 (Q9UKV0 whole entry): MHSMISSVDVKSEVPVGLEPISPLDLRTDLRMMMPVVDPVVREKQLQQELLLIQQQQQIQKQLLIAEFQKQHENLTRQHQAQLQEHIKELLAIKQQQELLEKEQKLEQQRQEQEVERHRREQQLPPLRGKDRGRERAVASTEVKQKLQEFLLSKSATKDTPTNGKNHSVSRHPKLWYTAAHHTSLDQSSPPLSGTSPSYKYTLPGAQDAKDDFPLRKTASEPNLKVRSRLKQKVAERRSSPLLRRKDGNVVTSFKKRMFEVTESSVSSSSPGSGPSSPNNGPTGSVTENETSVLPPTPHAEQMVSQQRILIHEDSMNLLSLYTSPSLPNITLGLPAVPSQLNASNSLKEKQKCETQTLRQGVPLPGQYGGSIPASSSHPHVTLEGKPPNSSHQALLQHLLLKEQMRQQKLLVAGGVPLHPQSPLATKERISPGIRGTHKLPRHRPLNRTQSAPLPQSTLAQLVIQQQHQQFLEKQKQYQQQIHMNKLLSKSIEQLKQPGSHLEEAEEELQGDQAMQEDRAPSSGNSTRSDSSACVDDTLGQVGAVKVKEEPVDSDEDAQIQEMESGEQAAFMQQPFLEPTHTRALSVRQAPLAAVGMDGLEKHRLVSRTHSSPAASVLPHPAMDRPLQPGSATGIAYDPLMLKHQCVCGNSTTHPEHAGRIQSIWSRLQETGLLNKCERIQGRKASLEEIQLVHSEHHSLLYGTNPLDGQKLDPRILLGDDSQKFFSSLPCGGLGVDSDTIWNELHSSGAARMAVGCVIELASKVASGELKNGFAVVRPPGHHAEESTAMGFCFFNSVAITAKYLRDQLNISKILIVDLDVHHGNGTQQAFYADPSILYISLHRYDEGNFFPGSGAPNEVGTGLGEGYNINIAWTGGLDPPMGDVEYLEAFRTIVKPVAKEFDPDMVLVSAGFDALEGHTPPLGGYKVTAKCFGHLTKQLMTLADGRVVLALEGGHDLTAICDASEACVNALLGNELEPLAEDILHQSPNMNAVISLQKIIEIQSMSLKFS
Chain of HDAC5 (Q9UQL6 whole entry): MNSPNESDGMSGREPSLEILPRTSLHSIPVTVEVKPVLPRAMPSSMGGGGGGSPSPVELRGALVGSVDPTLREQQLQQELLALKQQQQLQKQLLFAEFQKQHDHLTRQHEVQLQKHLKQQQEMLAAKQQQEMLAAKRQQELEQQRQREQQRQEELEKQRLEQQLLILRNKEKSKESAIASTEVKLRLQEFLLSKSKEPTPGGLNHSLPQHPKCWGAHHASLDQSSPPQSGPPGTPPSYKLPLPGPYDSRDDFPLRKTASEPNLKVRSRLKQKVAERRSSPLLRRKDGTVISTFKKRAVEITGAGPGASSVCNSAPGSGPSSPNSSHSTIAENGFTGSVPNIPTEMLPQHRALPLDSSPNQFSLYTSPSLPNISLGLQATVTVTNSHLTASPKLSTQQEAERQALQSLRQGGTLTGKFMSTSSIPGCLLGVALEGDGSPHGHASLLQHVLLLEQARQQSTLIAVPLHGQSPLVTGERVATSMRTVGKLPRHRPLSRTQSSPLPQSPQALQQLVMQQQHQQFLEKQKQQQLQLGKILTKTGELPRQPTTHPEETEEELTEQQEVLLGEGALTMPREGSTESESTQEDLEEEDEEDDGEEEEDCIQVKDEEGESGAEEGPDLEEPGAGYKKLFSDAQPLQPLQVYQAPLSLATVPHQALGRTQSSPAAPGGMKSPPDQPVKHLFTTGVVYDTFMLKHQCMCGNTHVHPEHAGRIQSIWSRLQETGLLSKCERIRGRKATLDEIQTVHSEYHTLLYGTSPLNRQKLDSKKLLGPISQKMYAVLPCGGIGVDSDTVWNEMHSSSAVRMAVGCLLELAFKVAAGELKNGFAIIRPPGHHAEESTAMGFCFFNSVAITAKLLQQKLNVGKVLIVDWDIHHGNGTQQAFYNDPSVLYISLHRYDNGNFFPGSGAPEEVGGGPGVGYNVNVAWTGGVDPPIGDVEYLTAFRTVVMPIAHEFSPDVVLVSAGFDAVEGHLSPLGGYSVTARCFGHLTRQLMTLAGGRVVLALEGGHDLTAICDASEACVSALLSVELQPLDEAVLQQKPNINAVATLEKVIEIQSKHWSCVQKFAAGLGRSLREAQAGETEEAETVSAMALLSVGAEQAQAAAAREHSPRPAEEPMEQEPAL
Chain of HDAC4 (P56524 whole entry): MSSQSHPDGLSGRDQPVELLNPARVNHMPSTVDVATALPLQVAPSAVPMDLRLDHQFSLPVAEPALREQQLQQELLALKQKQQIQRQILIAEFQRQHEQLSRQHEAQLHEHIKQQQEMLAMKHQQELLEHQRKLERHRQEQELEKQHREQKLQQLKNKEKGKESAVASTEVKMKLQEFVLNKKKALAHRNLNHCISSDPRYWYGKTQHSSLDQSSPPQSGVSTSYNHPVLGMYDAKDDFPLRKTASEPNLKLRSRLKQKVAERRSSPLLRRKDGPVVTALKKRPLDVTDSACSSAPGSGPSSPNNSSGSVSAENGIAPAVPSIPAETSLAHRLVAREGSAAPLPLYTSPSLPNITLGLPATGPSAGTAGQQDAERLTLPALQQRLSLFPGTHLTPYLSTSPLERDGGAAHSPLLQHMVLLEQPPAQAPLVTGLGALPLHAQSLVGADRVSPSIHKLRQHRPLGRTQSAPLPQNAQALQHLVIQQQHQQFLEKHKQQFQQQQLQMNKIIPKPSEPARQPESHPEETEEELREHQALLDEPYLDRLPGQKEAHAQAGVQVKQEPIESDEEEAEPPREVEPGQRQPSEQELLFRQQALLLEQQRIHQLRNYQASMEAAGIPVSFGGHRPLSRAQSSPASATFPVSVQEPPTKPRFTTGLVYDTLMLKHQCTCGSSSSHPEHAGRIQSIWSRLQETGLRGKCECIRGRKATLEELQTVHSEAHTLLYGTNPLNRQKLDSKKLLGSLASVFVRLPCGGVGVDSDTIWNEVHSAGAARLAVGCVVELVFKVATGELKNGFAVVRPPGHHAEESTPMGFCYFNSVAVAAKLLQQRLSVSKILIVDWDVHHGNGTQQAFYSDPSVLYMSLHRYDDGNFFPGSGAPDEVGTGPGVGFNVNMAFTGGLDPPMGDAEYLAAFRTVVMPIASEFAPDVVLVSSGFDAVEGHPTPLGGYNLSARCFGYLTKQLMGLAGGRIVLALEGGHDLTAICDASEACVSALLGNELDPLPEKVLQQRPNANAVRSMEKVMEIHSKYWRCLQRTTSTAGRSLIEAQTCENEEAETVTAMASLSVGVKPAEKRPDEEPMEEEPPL

In general, IC50 refers to the point on the concentration scale where inhibition reaches its midpoint. `FC(F)(F)c1nc(-c2cnc(NC3(c4ccccc4)CC3)nc2)no1`: the IC50 at HDAC9 is 77 nM; at HDAC8, over 30000 nM; on HDAC7, 20 nM; at HDAC10, 6400 nM; on HDAC5, 250 nM; on HDAC6 it was 150 nM. The half-maximal inhibitory concentration (IC50) was 13000 nM at HDAC2, over 30000 nM on HDAC11, 4100 nM at HDAC3/NCOR2 and 13 nM on HDAC4.
As to `FC(F)c1nc(-c2cnc(NC3(c4ccccc4)CC3)nc2)no1`, the results for the 50% inhibitory concentration (IC50) on HDAC6 and on HDAC1 were 2900 nM and over 30000 nM, respectively.
